For test [1], the system named is human colon cancer HT-29 cells. The test is described as follows: Anti-tumor effect of C242-DM1, CPT-11 and their combination in established subcutaneous HT-29 xenograft model (Example 7, FIG. 10). In kind it is in vivo. As to conditions: HT-29 s.c. xenografts, SCID mice, tumors about 80 mm^3 at start; CPT-11 50 mg/kg×2 q3d i.v.; C242-DM1 DM1 dose 75 μg/kg×5 qd i.v. As for the experimental part:
(§1) A control group of animals received phosphate-buffered saline (PBS) using the same schedule as the animals in group 2. Tumor growth was monitored by measuring tumor size twice per week. Tumor size was calculated using the formula: length×width×height×½.

The subject of test [2] is human small cell lung cancer SW-2 cells. The test is described as follows: Anti-tumor effect of huN901-DM1, docetaxel and their combination in established subcutaneous SW-2 xenograft model (Example 4, FIG. 7). The test is classed as in vivo. As to conditions: SW-2 s.c. xenografts, SCID mice, tumors about 100 mm^3 at start; docetaxel 5 mg/kg×5 q2d i.v.; huN901-DM1 DM1 dose 75 μg/kg×5 qd i.v. As to the method:
Tumor size was calculated with the formula: length×width×height×½.
In 3 out of 6 animals in this treatment group, the tumor was eradicated—resulting in cures lasting greater than 200 days. In the remaining 3 animals in this group, there was a tumor growth delay of 52 days, which is 24 days longer than the calculated additive effect.

The subject of test [3] is human lung adenocarcinoma NCI-H441 cells. Particulars: NCI-H441 s.c. xenografts, SCID mice, tumors about 125 mm^3 at start; paclitaxel 15 mg/kg×5 q2d i.p. As to the method: as §1
The test system of test [4] is NCI N417 cells (small cell lung cancer xenografts). The test is classed as in vivo. As to conditions: NCI N417 s.c. xenografts, SCID mice, tumors approx. 100 mm^3 at start; huN901-DM1 DM1 dose 75 μg/kg/d×5 i.v.; paclitaxel 10 mg/kg/d×5 i.p. As for the experimental part: In this experiment, a low, non-curative dose of huN901-DM1 was used with an optimal does of paclitaxel (Sigma Chemical Co., St. Louis, Mo.). SCID mice (7 animals per group) were inoculated subcutaneously with NCI N417 cells (8×10^6 cells/animal). After the tumors were well-established (average tumor size was approximately 100 mm^3), one group of animals was treated with huN901-DM1 at a DM1 dose of 75 μg/kg/d×5, administered i.v. everyday. A second group of animals was treated with paclitaxel at a dose of 10 mg/kg/d×5, administered by i.p. everyday. […] A fourth, control group of animals was left untreated. Tumor size was measured as described by Liu et al, Proc. Natl. Acad. Sci., 93:8618-8623 (1996). Animals were also monitored for weight loss as an indicator of signs of toxicity.
In the control group of animals, the tumors grew rapidly to a size of about 900 mm^3 by Day 28 post-tumor inoculation. In animals treated with either huN901-DM1 or paclitaxel, there was a modest anti-tumor effect with a tumor growth delay of 4 days in each case.

Test [5] deals with human small cell lung cancer SW-2 cells. In words: Anti-tumor effect of huN901-DM1, topotecan and their combination in established subcutaneous SW-2 xenograft model (Example 5, FIG. 8). The test is classed as in vivo. Particulars: SCID mice. As for the experimental part: FIG. 8 is a graph comparing the anti-tumor activity of (i) a control, (ii) huN901-DM1, (iii) topotecan, and (iv) the combination of huN901-DM1 and topotecan, against small cell lung cancer xenografts in SCID mice.
The anti-tumor effect of a combination of a low dose of huN901-DM1 and topotecan (available as HYCAMTIN® from SmithKline Beecham Pharmaceuticals), one of the approved drugs for the treatment of small cell lung cancer (SCLC) in humans, was evaluated in an established subcutaneous xenograft model of SCLC. SCID mice (24 animals) were inoculated with human small cell lung cancer SW-2 cells (8×10^6 cells/animal) injected subcutaneously into the right flank of the mice. When the tumors reached about 80 mm^3 in size, the mice were randomly divided into four groups (6 animals per group). The first group of mice was treated with topotecan (1.4 mg/kg×5, qd) administered i.v. A second group of animals was treated with huN901-DM1 (DM1 dose of 100 μg/kg×5, qd) administered i.v. The third group of mice received a combination of topotecan and huN901-DM1, using the same doses and schedules as in groups 1 and 2. A control group of animals received phosphate-buffered saline (PBS) using the same schedule as the animals in group 2. Tumor growth was monitored by measuring tumor size twice per week. Tumor size was calculated using the formula: length×width×height×½.

In test [6] the test system is NCI N417 cells (small cell lung cancer xenografts). The test is described as follows: Anti-tumor activity of huN901-DM1, cisplatin plus etoposide, and the triple combination against established NCI N417 xenografts (Example 3, FIG. 6). The test is classed as in vivo. As to conditions: NCI N417 s.c. xenografts, SCID mice; huN901-DM1 DM1 dose 75 μg/kg/d×5 i.v.; cisplatin 2 mg/kg/d×3 i.v. every other day; etoposide 8 mg/kg/d×3 every other day. As to the method:
In this experiment, a low, non-curative dose of huN901-DM1 was used with an optimal dose of cisplatin (Sigma Chemical Co., St. Louis, Mo.) and etoposide (Sigma Chemical Co., St. Louis, Mo.). SCID mice (7 animals per group) were inoculated subcutaneously with NCI N417 cells (8×10^6 cells/animal). After the tumors were well-established (average tumor size was approximately 100 mm^3), one group of animals was treated with huN901-DM1 at a DM1 dose of 75 μg/kg/d×5, administered i.v. everyday. A second group of animals was treated with cisplatin (at a dose of 2 mg/kg/d×3, administered by i.v. ever other day) and etoposide (at a dose of 8 mg/kg/d×3, administered every other day). A third group of animals was treated with huN901-DM1, cisplatin and etoposide using the same dose and schedule used for a the individual agents. A fourth, control group of animals was left untreated. Tumor size was measured as described by Liu et al, Proc. Natl. Acad. Sci., 93:8618-8623 (1996). Animals were also monitored for weight loss as an indicator of signs of toxicity.
In the control group of animals, the tumors grew rapidly to a size of about 900 mm^3 by Day 28 post-tumor inoculation. In animals treated with either huN901-DM1 or cisplatin and etoposide, there was a modest anti-tumor effect with a tumor growth delay of 4 days in each case.

Read-outs that look alike come from different tables or passages of the source.

Take `CCc1c2c(nc3ccc(OC(=O)N4CCC(N5CCCCC5)CC4)cc13)-c1cc3c(c(=O)n1C2)COC(=O)[C@]3(O)CC` [CPT-11, irinotecan]: the tumor growth delay in test [1] came out at 6 days.

For the molecule `CC(=O)O[C@@]12CO[C@@H]1C[C@H](O)[C@@]1(C)C(=O)[C@H](O)C3=C(C)[C@@H](OC(=O)[C@H](O)[C@@H](NC(=O)OC(C)(C)C)c4ccccc4)C[C@@](O)([C@@H](OC(=O)c4ccccc4)[C@H]21)C3(C)C` [docetaxel], the tumor growth delay in test [2] stood at 8 days.

Turning to `CC(=O)O[C@H]1C(=O)[C@@]2(C)[C@H]([C@H](OC(=O)c3ccccc3)[C@]3(O)C[C@H](OC(=O)[C@H](O)[C@@H](NC(=O)c4ccccc4)c4ccccc4)C(C)=C1C3(C)C)[C@]1(OC(C)=O)CO[C@@H]1C[C@@H]2O` [paclitaxel], the tumor growth delay in test [3] and in test [4] was 4 days throughout.

For the molecule `CC[C@@]1(O)C(=O)OCc2c1cc1n(c2=O)Cc2cc3c(CN(C)C)c(O)ccc3nc2-1` [topotecan], in test [5] (SW-2 s.c. xenografts, tumors about 80 mm^3 at start, topotecan 1.4 mg/kg×5 qd i.v.), the tumor growth delay was determined as 12 days.

B1: huN901-DM1: maytansinoid DM1 conjugated via SPP disulfide link to humanized monoclonal antibody N901 (binds CD56); 3.9 DM1 molecules per antibody (conjugate, chains of the INN, looked up)
VH: QVQLVESGGGVVQPGRSLRLSCAASGFTFSSFGMHWVRQAPGKGLEWVAYISSGSFTIYYADSVKGRFTISRDNSKNTLYLQMNSLRAEDTAVYYCARMRKGYAMDYWGQGTLVTVSS
VL: DVVMTQSPLSLPVTLGQPASISCRSSQIIIHSDGNTYLEWFQQRPGQSPRRLIYKVSNRFSGVPDRFSGSGSGTDFTLKISRVEAEDVGVYYCFQGSHVPHTFGQGTKVEIK
modifications: DM1 via SPP disulfide linker
notes: 3.9 DM1 molecules per antibody
Turning to B1, the “animals with complete tumor regression” value in test [5] (SW-2 xenografts, 6 animals per group, topotecan 1.4 mg/kg×5 qd i.v., huN901-DM1 100 μg/kg×5 qd i.v.) is reported as 3 animals. Further, in test [5] (SW-2 xenografts, huN901-DM1 DM1 dose 100 μg/kg×5 qd i.v., the 3 animals without complete regression), the “tumor-growth delay in 3 out of 6 animals” value turned out to be 34 days. Moreover, the results for the tumor growth delay in test [4], in test [2] and in test [6] were 4 days, 20 days and 4 days, respectively.

The values above are taken from patent publication USRE44704E1, “Compositions and methods for treating cancer using immunoconjugates and chemotherapeutic agents” (Immunogen Inc., priority 1999, dated 2014).
